Laboratory results: patent US8372848B2, “Melanin-concentrating hormone receptor antagonists and methods of use” (Mixture Sciences, Inc., priority 2004, dated 2013)
“Also recorded” adds a separate entry of the source.

What was measured:
rat MCH1R = rat MCH1R (Rattus norvegicus, UniProt P97639); assay: [125I] MCH binding to membrane fractions of MCH1R expressing HEK-293T
Experimental: Cell pellet was homogenized with ice-cold 50 mM Tris-HCl buffer (pH 7.4) containing 5 mM EDTA, and ultra-centrifuged twice at 48,000×g for 20 min at 4° C. The pellets were then suspended in 50 mM Tris-HCl (pH 7.4) buffer containing 5 mM EDTA and used as membrane fractions. […] The radioactivity retained in the filters was determined with a γ-counter. IC50 values calculated as described above are expressed as the mean +S.E.M. for three independent determinations. DNA was mixed with LipofectAMINE transfection reagents (Life Technologies, MD), and the mixture was diluted with Opti-MEM and added to 60-70% confluent HEK 293T cells plated on 100-mm dishes. The transfected cells were cultured in DMEM containing 10% FBS.

human MCH2R = human MCH2R (Homo sapiens, UniProt Q969V1); assay: Selectivity versus human MCH2R; format: cell-based
Sequence of human MCH2R (Q969V1 whole entry): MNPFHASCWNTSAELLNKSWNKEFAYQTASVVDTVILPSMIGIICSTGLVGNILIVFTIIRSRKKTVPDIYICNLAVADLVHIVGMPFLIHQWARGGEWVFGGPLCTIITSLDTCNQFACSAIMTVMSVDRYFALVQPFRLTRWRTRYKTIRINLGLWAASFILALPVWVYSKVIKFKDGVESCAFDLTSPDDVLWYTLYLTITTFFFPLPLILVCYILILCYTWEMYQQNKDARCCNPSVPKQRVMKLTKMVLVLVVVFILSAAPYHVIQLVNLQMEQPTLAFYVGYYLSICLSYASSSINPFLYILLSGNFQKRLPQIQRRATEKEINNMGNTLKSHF

orexin 1R = target: T1, orexin 1R (Homo sapiens, UniProt O43613); assay: Selectivity versus orexin 1R; format: cell-based
T1 sequence (O43613 1-425): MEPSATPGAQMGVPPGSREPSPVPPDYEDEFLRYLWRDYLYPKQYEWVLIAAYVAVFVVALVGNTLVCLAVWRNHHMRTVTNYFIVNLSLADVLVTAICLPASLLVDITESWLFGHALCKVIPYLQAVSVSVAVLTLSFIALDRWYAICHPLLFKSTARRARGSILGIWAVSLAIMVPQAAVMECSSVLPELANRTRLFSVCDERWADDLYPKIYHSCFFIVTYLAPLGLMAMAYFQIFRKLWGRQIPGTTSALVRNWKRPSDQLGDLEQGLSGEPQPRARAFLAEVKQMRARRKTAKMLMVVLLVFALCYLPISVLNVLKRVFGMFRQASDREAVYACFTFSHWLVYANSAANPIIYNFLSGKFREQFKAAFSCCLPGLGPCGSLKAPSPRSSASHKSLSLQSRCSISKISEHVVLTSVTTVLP

[1] = target: T2, prolactin releasing peptide (PrRP) receptor (Homo sapiens, UniProt P49683); assay: Selectivity versus PrRP receptor; format: cell-based
T2 sequence (P49683 1-370): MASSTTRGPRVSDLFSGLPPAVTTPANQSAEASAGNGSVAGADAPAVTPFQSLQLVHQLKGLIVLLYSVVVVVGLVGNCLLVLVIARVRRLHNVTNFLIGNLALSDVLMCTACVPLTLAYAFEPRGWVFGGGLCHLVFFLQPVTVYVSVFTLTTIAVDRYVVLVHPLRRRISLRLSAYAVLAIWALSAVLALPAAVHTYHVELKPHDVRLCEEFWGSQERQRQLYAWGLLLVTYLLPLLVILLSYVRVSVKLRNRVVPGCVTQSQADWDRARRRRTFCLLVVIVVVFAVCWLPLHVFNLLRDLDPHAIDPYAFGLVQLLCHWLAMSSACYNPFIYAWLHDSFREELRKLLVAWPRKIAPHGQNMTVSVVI

[2] = target: kappa opioid receptor (dynorphin) (Homo sapiens, UniProt P41145); assay: Selectivity versus kappa opioid receptor; format: cell-based
Sequence of kappa opioid receptor (dynorphin) (P41145 whole entry): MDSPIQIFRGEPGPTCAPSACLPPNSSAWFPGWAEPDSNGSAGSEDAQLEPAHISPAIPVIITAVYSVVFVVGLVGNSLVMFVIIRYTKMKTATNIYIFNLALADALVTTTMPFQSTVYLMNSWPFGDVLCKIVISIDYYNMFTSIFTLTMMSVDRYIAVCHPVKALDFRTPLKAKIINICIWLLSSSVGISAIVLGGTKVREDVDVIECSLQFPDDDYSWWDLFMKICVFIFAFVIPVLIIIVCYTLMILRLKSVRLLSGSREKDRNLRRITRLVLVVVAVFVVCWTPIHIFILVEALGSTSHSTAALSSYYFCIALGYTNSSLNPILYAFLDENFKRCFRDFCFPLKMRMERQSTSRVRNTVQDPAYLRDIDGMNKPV

rats [3] = assay: MCH-induced food intake after icv administration; format: in vivo, rat
Experimental: To determine inhibitory effects of TPI 1361-17 on MCH-induced food intake, rats were habituated to a wire bottom cage for more than 3 weeks prior to the experiment. Experiments were carried out from 6 a.m. to 7 a.m. when rats were satiated. […] On the other hand, five nmol of TPI 1361-17 suppressed cumulative food intake by 75% even at 4h (FIG. 5B).
To determine the effects of TPI 1361-17 on MCH-induced food intake, rats were randomly divided into three groups: 1) TPI 1361-17 (dissolved in DMSO) and 2 nmol of MCH; 2) MCH 2 nmol, 3) ACSF. Each mixture contained a DMSO equivalent concentration to that of the antagonist solution (up to 5% (v/v)). Ten μl of each solution was administered into lateral ventricle for 2 minutes. The injections were done between 7:00-8:00 a.m., and food intake was monitored for 4 h after the injection.
For animal studies, adult male Sprague-Dawley rats weighing 200-300g were obtained from Charles River Laboratories (Wilmington, Mass.), bearing a 23-gauge stainless steel cannula placed into the right lateral ventricle. Rats were housed individually and maintained on a 12 h light-dark cycle (6:00 am-6:00 pm light) with free access to tap water and rat chaw (PROLAB RMH 2500, containing 23.0% protein, 4.5% fat, gross energy 4.5 kcal/g. PMI nutrition international, LLC. Brentwood, Mo.). Prior to all studies, rats were handled and habituated for 7 days, and 10 μl of artificial cerebrospinal fluid (ACSF: NaCl 124, KCl 5, CaCl2 2.4 MgSO4 2, KH2PO4 1.25, NaHCO3 26 and glucose 10, in mM) was injected through the cannula to minimize stress effects at the time of the experiment. Cannula placement was confirmed in all animals by evaluating the response to 50 ng of angiotensin II. Only animals drinking more than 5 ml of water in 1 h were used in feeding studies.

rats [4] = assay: Motor activity in rats, Example VI; format: in vivo, rat; conditions: 10 nM i.c.v.
Experimental: Sprague Dawley rats were randomly divided into two groups (Group I and Group II) of eight (8) rats each. The rats in Group I (n=8) received 0.9% saline by i.c.v. injection. The rats in Group II (n−8) received 10 nM TPI 1361-17 (Formula IV) by i.c.v. injection. […] Once each day thereafter, for a total of ______ days, the rats were taken into a test room, allowed to acclimatize for ______ minutes, then placed in four identical chambers (43 cm×43 cm×30.5 cm) that were connected to a common interface and computer (MED Associates, Inc., St. Albans, Vt.). Horizontal movement of the rats was monitored by 16 photobeams per side evenly spaced along each wall of two adjacent sides of each test chamber.

Sequence of rat MCH1R (P97639 whole entry): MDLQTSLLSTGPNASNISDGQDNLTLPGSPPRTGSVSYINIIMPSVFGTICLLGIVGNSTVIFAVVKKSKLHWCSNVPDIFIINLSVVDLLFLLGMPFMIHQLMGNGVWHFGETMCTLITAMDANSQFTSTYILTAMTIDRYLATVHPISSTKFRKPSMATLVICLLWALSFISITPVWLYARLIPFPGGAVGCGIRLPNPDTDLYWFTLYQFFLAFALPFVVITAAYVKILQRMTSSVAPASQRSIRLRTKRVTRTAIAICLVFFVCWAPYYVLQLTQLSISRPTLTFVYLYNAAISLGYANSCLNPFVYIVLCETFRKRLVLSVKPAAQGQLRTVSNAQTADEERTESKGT

Displacement of [125I] MCH binding to rat MCH1R (rat MCH1R): completely displaced | IC50 (rat MCH1R; mean ±S.E.M., 0.1 nM radioligand, read-out: IC50 for displacement of [125I] MCH binding): 140 ± 34.6 nM | Selectivity for MCH1R compared with human MCH2R (human MCH2R): more than 1,000 fold | Selectivity for MCH1R compared with orexin 1R (orexin 1R): more than 1,000 fold | Selectivity for MCH1R compared with PrRP receptor [1]: more than 1,000 fold | Selectivity for MCH1R compared with kappa opioid receptor [2]: more than 1,000 fold | Motor activity versus control (distance traveled, time resting, time ambulatory, ambulatory counts, time stereotypic, stereotypic counts) (rats [4]): no significant differences
SMILES: C[C@@H](CNCc1ccccc1)N1C[C@H](CCCNC(=N)N)N(CCc2cccc(F)c2)C1=S [TPI 1361-17, N-(3-{(4S)-1-[(1S)-2-(benzylamino)-1-methylethyl]-3-[2-(3-fluorophenyl)ethyl]-2-thioxoimidazolidin-4-yl}propyl)guanidine]
Affinity to / antagonism of human MCH2R (human MCH2R): no affinity; also recorded: not appreciably antagonize | MCH-induced food intake at the low dose (rats [3]; 1 nmol icv with 2 nmol MCH, reversed over the next two hours): decreased MCH-induced food intake for 1 h and 2h | Suppression of cumulative MCH-induced food intake (rats [3]; 5 nmol icv with 2 nmol MCH, at 4h): 75% | Reduction of MCH-induced food intake, maximal (rats [3]; dose dependent, icv, SD rats, beginning of light phase): up to 75% | Duration of the effect on MCH-induced food intake (rats [3]; icv): over 4 h
